Results on 2 compounds are retold here after the NIST ThermoML archive (doi:10.1021/je100603q).

Numbers after ± are expanded uncertainties.

The nature of data set [1]: molar enthalpy of transition or fusion. The following applies: 298.15 K; Crystal; Microcalorimetry.
A short description of data set [2]: molar enthalpy of vaporization or sublimation. The following applies: 298.15 K; Crystal; Microcalorimetry.

Take `O=c1c2ccccc2sc2ccccc12` [thioxanthone]: the “molar enthalpy of transition or fusion” value in data set [1] is 25.5 ± 0.574 kcal/mol.

For the compound `O=C1CCSCC1` [tetrahydro-4H-thiopyran-4-one], the molar enthalpy in data set [2] came to 17.5 ± 0.669 kcal/mol.
